Counter-ions that a name gives are not always drawn. Like-named read-outs stand apart in the source and are kept apart here.
Legend:
[1] = test system: RS4;11 leukaemia tumour line; assay: In vitro cytotoxicity (Microculture Tetrazolium Assay); type: cell-based; conditions: Homo sapiens, RS4;11 cells, exposed for 48 hours, cell viability, read-out: IC50 (nM) MTT RS4;11
Procedure: The cytotoxicity studies were carried out on the RS4;11 leukaemia tumour line.
The cells are distributed onto microplates and exposed to the test compounds for 48 hours.
The cell viability is then quantified by a colorimetric assay, the Microculture Tetrazolium Assay (Cancer Res., 1987, 47, 939-942).

Bcl-2 protein = Bcl-2 protein (histag-Bcl-2, UniProtKB P10415) (Homo sapiens (Human), UniProt P10415); assay: Inhibition of Bcl-2 by the fluorescence polarisation technique; type: binding; conditions: incubation for 2 hours, read-out: IC50 (nM) Bcl-2 FP
Bcl-2 protein, sequence (P10415 whole entry): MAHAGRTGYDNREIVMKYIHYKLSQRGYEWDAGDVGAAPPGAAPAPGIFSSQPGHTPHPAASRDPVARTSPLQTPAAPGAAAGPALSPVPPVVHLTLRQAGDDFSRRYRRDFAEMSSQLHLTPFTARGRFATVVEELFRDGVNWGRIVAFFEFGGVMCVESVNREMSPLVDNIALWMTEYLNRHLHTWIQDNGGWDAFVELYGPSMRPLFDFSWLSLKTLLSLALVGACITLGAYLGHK
Procedure: The fluorescence polarisation tests were carried out on microplates (384 wells). The Bcl-2 protein, labelled (histag-Bcl-2 such that Bcl-2 corresponds to the UniProtKB® primary accession number: P10415), at a final concentration of 2.50×10^−8 M, is mixed with a fluorescent peptide (Fluorescein-[…]), at a final concentration of 1.00×10^−8 M in a buffer solution (Hepes 10 mM, NaCl 150 mM, Tween20 0.05%, pH 7.4), in the presence or absence of increasing concentrations of test compounds. After incubation for 2 hours, the fluorescence polarisation is measured.

Row | SMILES | IC50 (Bcl-2 protein) | IC50 ([1]; RS4-11, 48 h) | IC50 [1]
1 | CC1=C(C(=O)N(c2ccccc2)c2ccc(O)cc2)CC(c2cc(Cl)ccc2C(=O)N2Cc3ccccc3C[C@H]2COCCN2CCOCC2)N1C (stereo partly drawn) [Example 29, 5-(5-Chloro-2-{[(3S)-3-{[2-(morpholin-4-yl)ethoxy]methyl}-3,4-dihydroisoquinolin-2(1H)-yl]carbonyl}phenyl)-N-(4-hydroxyphenyl)-1,2-dimethyl-N-phenyl-4H-pyrrole-3-carboxamide hydrochloride] | 6.6 nM | 47.5 nM | –
2 | Cc1c(C(=O)N(C)c2ccc(O)cc2)cc(-c2ccc(CNC(=O)Oc3ccccc3)cc2C(=O)N2Cc3ccccc3C[C@H]2C)n1C [Example 32, Phenyl (4-{4-[(4-hydroxyphenyl)(methyl)carbamoyl]-1,5-dimethyl-1H-pyrrol-2-yl}-3-{[(3R)-3-methyl-3,4-dihydroisoquinolin-2(1H)-yl]carbonyl}benzyl)-carbamate] | 13.3 nM | – | 240 nM
3 | Cc1c(C(=O)N(c2ccc(O)cc2)c2ccc(F)cc2)cc(-c2cc(Cl)ccc2C(=O)N2Cc3ccccc3C[C@H]2CN2CCOCC2)n1C [Example 33, 5-(5-Chloro-2-{[(3S)-3-(morpholin-4-ylmethyl)-3,4-dihydroisoquinolin-2(1H)-yl]carbonyl}phenyl)-N-(4-fluorophenyl)-N-(4-hydroxyphenyl)-1,2-dimethyl-1H-pyrrole-3-carboxamide hydrochloride] | 10.9 nM | 57.8 nM | –

Continued, in another order:

Row | IC50 (Bcl-2 protein) | SMILES | IC50 ([1]; RS4-11, 48 h) | IC50 [1]
4 | 4.1 nM | CNCCn1c(-c2cc3c(cc2C(=O)N2Cc4ccccc4C[C@H]2C)OCO3)cc(C(=O)N(c2ccc(O)cc2)c2cnn(C)c2)c1C [Example 26, N-(4-Hydroxyphenyl)-2-methyl-1-[2-(methylamino)ethyl]-5-(6-{[(3R)-3-methyl-3,4-dihydroisoquinolin-2(1H)-yl]carbonyl}-1,3-benzodioxol-5-yl)-N-(1-methyl-1H-pyrazol-4-yl)-1H-pyrrole-3-carboxamide hydrochloride] | 541 nM | –
5 | 5.2 nM | Cc1c(C(=O)N(c2ccc(O)cc2)c2cnn(C)c2)cc(-c2cc3c(cc2C(=O)N2Cc4ccccc4C[C@H]2C)OCO3)n1CCN(C)C [Example 27, 1-[2-(Dimethylamino)ethyl]-N-(4-hydroxyphenyl)-2-methyl-5-(6-{[(3R)-3-methyl-3,4-dihydroisoquinolin-2(1H)-yl]carbonyl}-1,3-benzodioxol-5-yl)-N-(1-methyl-1H-pyrazol-4-yl)-1H-pyrrole-3-carboxamide hydrochloride] | 93.4 nM | –
6 | 7.5 nM | Cc1c(C(=O)N(c2ccncc2)c2ccc(O)cc2)cc(-c2cc(Cl)ccc2C(=O)N2Cc3ccccc3C[C@H]2C)n1C [Example 28, 5-(5-Chloro-2-{[(3R)-3-methyl-3,4-dihydroisoquinolin-2(1H)-yl]carbonyl}phenyl)-N-(4-hydroxyphenyl)-1,2-dimethyl-N-(pyridin-4-yl)-1H-pyrrole-3-carboxamide hydrochloride] | 95.3 nM | –
7 | 4.7 nM | Cc1c(C(=O)N(c2ccc(O)cc2)c2cnn(C)c2)cc(-c2cc3c(cc2C(=O)N2Cc4ccccc4C[C@H]2C)OCO3)n1CCN [Example 30, 1-(2-Aminoethyl)-N-(4-hydroxyphenyl)-2-methyl-5-(6-{[(3R)-3-methyl-3,4-dihydroisoquinolin-2(1H)-yl]carbonyl}-1,3-benzodioxol-5-yl)-N-(1-methyl-1H-pyrazol-4-yl)-1H-pyrrole-3-carboxamide hydrochloride] | 771 nM | –
8 | 7.2 nM | COc1ccc(C(=O)N2Cc3ccccc3C[C@H]2C)c(-c2cc(C(=O)N(c3ccc(O)cc3)c3cnn(C)c3)c(C)n2C)c1 [Example 31, N-(4-Hydroxyphenyl)-5-(5-methoxy-2-{[(3R)-3-methyl-3,4-dihydroisoquinolin-2(1H)-yl]carbonyl}phenyl)-1,2-dimethyl-N-(1-methyl-1H-pyrazol-4-yl)-1H-pyrrole-3-carboxamide] | 89.3 nM | –

Source: US9108983B2, “Pyrrole compounds, a process for their preparation and pharmaceutical compositions containing them” (LES LABORATOIRES SERVIER, priority 2013, dated 2015)
